In brackets after ≈: the same amount, converted by molar mass.
Columns and labels:
MRSA 33591 [1] = assay: Minimal inhibitory concentration (MIC), broth microdilution, MRSA 33591; details: Staphylococcus aureus, read-out: MIC MRSA 33591
MRSA 33591 [2] = assay: Time-kill assay; assay type: cell-based, Staphylococcus aureus; details: in 24 hours; bactericidal = >=3 log decrease in bacterial cell numbers
Experimental: This time-kill assay is a method for measuring the rate of bactericidal activity of a test compound. These procedures are similar to those described in V. Lorian, “Antibiotics in Laboratory Medicine”, Fourth Edition, Williams and Wilkins (1996), pages 104–105. A rapid time-kill is desirable to quickly prevent bacterial colonization and reduce host tissue damage.
Bacterial inocula were prepared as described in Example 6 for determination of MIC. Bacteria were diluted in prewarmed media in shake flasks and incubated with shaking (200 rpm, 35° C.). At 0, 1, 4, and 24 hours samples were withdrawn from the flasks and bacteria were enumerated by plate counting. Subsequent to the initial sampling, a test compound to be assayed was added to the shake flask culture. Plate counts at these intervals previous to and following addition of the compound were expressed graphically in a time-kill curve. Bactericidal activity is defined as a greater than or equal to 3 log decrease (reduction greater than or equal to 99.9%) in bacterial cell numbers by 24 hours.
By comparison, vancomycin was bactericidal against MRSA 33591 at a concentration of 4 μg/mL in 24 hours.

[3] = test system: methicillin-susceptible Staphylococcus aureus (MSSA 13709) and methicillin-resistant Staphylococcus aureus (MRSA 33591); assay: In vivo efficacy studies in neutropenic mice (thigh infection); details: iv, 24 h, read-out: ED50 (dose required to produce 50% of the maximum reduction in thigh titre)
MSSA 13709 = assay: Minimal inhibitory concentration (MIC), broth microdilution, MSSA 13709; details: Staphylococcus aureus, read-out: MIC MSSA 13709

CN[C@H](CC(C)C)C(=O)N[C@H]1C(=O)N[C@@H](CC(N)=O)C(=O)N[C@H]2C(=O)N[C@H]3C(=O)N[C@H](C(=O)N[C@H](C(=O)O)c4cc(O)cc(O)c4-c4cc3ccc4O)[C@H](O)c3ccc(c(Cl)c3)Oc3cc2cc(c3O[C@@H]2O[C@H](CO)[C@@H](O)[C@H](O)[C@H]2O[C@H]2C[C@](C)(N)[C@H](O)[C@H](C)O2)Oc2ccc(cc2Cl)[C@H]1O [Vancomycin, vancomycin]
MIC (MRSA 33591 [1]): 2 µg/mL (≈ 1.38 µM)
concentration at which bactericidal (MRSA 33591 [2]): 4 µg/mL
ED50 [3]: 9 mg/kg
MIC (MSSA 13709): 1 µg/mL (≈ 0.69 µM)

From US7067482B2, “Cross-linked glycopeptide-cephalosporin antibiotics” (Theravance, Inc., priority 2003, dated 2006)
